Measurements from patent publication US20110086759A1, “CHEMICAL COMPOUNDS” (SYNGENTA CROP PROTECTION, INC., priority 2007, published 2011).

Columns and labels:
Format in all cases: in vivo
[1] = test system: Alopecurus myosuroides (ALOMY); assay: Pre-emergence biological efficacy, glasshouse pot test; settings: 312 h
Outline: (§1)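 Test compound, formulated in acetone/water (50:50) containing 0.5% Tween 20 and diluted into an aqueous spray, was applied at 1000 or 250 g/ha to pots sown one day earlier. Injury was rated after 13 days, 100 meaning total damage.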

[2] = test system: Amaranthus retoflexus (AMARE); assay: as above; settings: Amaranthus retroflexus, 312 h
Outline: as §1

[3] = test system: Echinochloa crus-galli (ECHCG); assay: as above; settings: 312 h
Outline: as §1

[4] = test system: Ipomea hederaceae (IPOHE); assay: as above; settings: Ipomoea hederacea, 312 h
Outline: as §1

Setaria faberi (SETFA) [5] = assay: as above; settings: 312 h
Outline: as §1

Solanum nigrum (SOLNI) [6] = assay: as above; settings: 312 h
Outline: as §1

[7] = test system: Alopecurus myosuroides (ALOMY); assay: Post-emergence biological efficacy, glasshouse pot test; settings: 312 h
Outline: (§2)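 Plants were sown in standard soil and grown 8 days in a glasshouse (24/16° C. day/night, 14 hours light, 65% humidity), then sprayed post-emergence at 1000 or 250 g/ha from acetone/water (50:50) with 0.5% Tween 20. Damage was scored visually after 13 days (0 = none, 100 = total).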

[8] = test system: Amaranthus retoflexus (AMARE); assay: as above; settings: Amaranthus retroflexus, 312 h
Outline: as §2

[9] = test system: Echinochloa crus-galli (ECHCG); assay: as above; settings: 312 h
Outline: as §2

[10] = test system: Ipomea hederaceae (IPOHE); assay: as above; settings: Ipomoea hederacea, 312 h
Outline: as §2

Setaria faberi (SETFA) [11] = assay: as above; settings: 312 h
Outline: as §2

Solanum nigrum (SOLNI) [12] = assay: as above; settings: 312 h
Outline: as §2

[13] = pre-emergence, 1,000 g/ha, evaluated after 13 days (100=total damage; 0=no damage), read-out: Percentage damage ALOMY
[14] = pre-emergence, 1,000 g/ha, evaluated after 13 days (100=total damage; 0=no damage), read-out: Percentage damage AMARE
[15] = pre-emergence, 1,000 g/ha, evaluated after 13 days (100=total damage; 0=no damage), read-out: Percentage damage ECHCG
[16] = pre-emergence, 1,000 g/ha, evaluated after 13 days (100=total damage; 0=no damage), read-out: Percentage damage IPOHE
[17] = pre-emergence, 1,000 g/ha, evaluated after 13 days (100=total damage; 0=no damage), read-out: Percentage damage SETFA
[18] = pre-emergence, 1,000 g/ha, evaluated after 13 days (100=total damage; 0=no damage), read-out: Percentage damage SOLNI
[19] = post-emergence, 1,000 g/ha, evaluated after 13 days (100=total damage; 0=no damage), read-out: Percentage damage caused to weed species, ALOMY
[20] = post-emergence, 1,000 g/ha, evaluated after 13 days (100=total damage; 0=no damage), read-out: Percentage damage caused to weed species, AMARE
[21] = post-emergence, 1,000 g/ha, evaluated after 13 days (100=total damage; 0=no damage), read-out: Percentage damage caused to weed species, ECHCG
[22] = post-emergence, 1,000 g/ha, evaluated after 13 days (100=total damage; 0=no damage), read-out: Percentage damage caused to weed species, IPOHE
[23] = post-emergence, 1,000 g/ha, evaluated after 13 days (100=total damage; 0=no damage), read-out: Percentage damage caused to weed species, SETFA
[24] = post-emergence, 1,000 g/ha, evaluated after 13 days (100=total damage; 0=no damage), read-out: Percentage damage caused to weed species, SOLNI
[25] = pre-emergence, rate 1,000 g/ha, evaluated after 13 days (100=total damage to plant; 0=no damage), read-out: Percentage damage caused to weed species, ALOMY
[26] = pre-emergence, rate 1,000 g/ha, evaluated after 13 days (100=total damage to plant; 0=no damage), read-out: Percentage damage caused to weed species, AMARE
[27] = pre-emergence, rate 1,000 g/ha, evaluated after 13 days (100=total damage to plant; 0=no damage), read-out: Percentage damage caused to weed species, ECHCG
[28] = pre-emergence, rate 1,000 g/ha, evaluated after 13 days (100=total damage to plant; 0=no damage), read-out: Percentage damage caused to weed species, IPOHE
[29] = pre-emergence, rate 1,000 g/ha, evaluated after 13 days (100=total damage to plant; 0=no damage), read-out: Percentage damage caused to weed species, SETFA
[30] = pre-emergence, rate 1,000 g/ha, evaluated after 13 days (100=total damage to plant; 0=no damage), read-out: Percentage damage caused to weed species, SOLNI
[31] = Rate 1,000 g/ha, post-emergence spray, evaluated after 13 days (100=total damage to plant; 0=no damage to plant), read-out: Percentage damage caused to weed species, post-emergence, ALOMY
[32] = Rate 1,000 g/ha, post-emergence spray, evaluated after 13 days (100=total damage to plant; 0=no damage to plant), read-out: Percentage damage caused to weed species, post-emergence, AMARE
[33] = Rate 1,000 g/ha, post-emergence spray, evaluated after 13 days (100=total damage to plant; 0=no damage to plant), read-out: Percentage damage caused to weed species, post-emergence, ECHCG
[34] = Rate 1,000 g/ha, post-emergence spray, evaluated after 13 days (100=total damage to plant; 0=no damage to plant), read-out: Percentage damage caused to weed species, post-emergence, IPOHE
[35] = Rate 1,000 g/ha, post-emergence spray, evaluated after 13 days (100=total damage to plant; 0=no damage to plant), read-out: Percentage damage caused to weed species, post-emergence, SETFA
[36] = Rate 1,000 g/ha, post-emergence spray, evaluated after 13 days (100=total damage to plant; 0=no damage to plant), read-out: Percentage damage caused to weed species, post-emergence, SOLNI

Compound	pest or weed control at 1000 g/ha [1, 13] [%]	pest or weed control at 1000 g/ha [2, 14] [%]	pest or weed control at 1000 g/ha [3, 15] [%]	pest or weed control at 1000 g/ha [4, 16] [%]	pest or weed control at 1000 g/ha (Setaria faberi (SETFA) [5]; [17]) [%]	pest or weed control at 1000 g/ha (Solanum nigrum (SOLNI) [6]; [18]) [%]	pest or weed control at 1000 g/ha [7, 19] [%]	pest or weed control at 1000 g/ha [8, 20] [%]	pest or weed control at 1000 g/ha [9, 21] [%]	pest or weed control at 1000 g/ha [10, 22] [%]	pest or weed control at 1000 g/ha (Setaria faberi (SETFA) [11]; [23]) [%]	pest or weed control at 1000 g/ha (Solanum nigrum (SOLNI) [12]; [24]) [%]	other results
COC(=O)c1nc(C2CC2)nc(NC(CS(C)(=O)=O)c2ccc(OC)cc2)c1Cl (stereo not drawn) [Compound 4-205, 5-Chloro-2-cyclopropyl-6-methoxycarbonyl-4-[1-(4-methoxy-phenyl)-2-methylsulphonyl-ethylamino]-pyrimidine]	0	0	0	0	0	0	0	20	0	20	0	10	–
COC(=O)c1nc(C2CC2)nc(NC2(/C=C/c3cc(C(F)(F)F)cc(C(F)(F)F)c3)CC2)c1Cl [Compound 4-22, 4-{1-[2-(3,5-Bis-trifluoromethylphen-yl)-ethenyl]-cyclopropylamino}-5-chloro-2-cyclopropyl-6-methoxycarbonyl-pyrimidine]	20	70	20	80	10	20	30	100	40	100	80	100	–
COC(=O)c1nc(C2CC2)nc(NC2(/C=C/c3ccccc3)CC2)c1Cl [4-19 (E), 5-Chloro-2-cyclopropyl-6-methoxycarbonyl-4-[1-(2-phenyl-ethenyl)-cyclo-propylamino]-pyrimidine]	20	40	20	80	20	60	20	100	40	100	70	80	–
COC(=O)c1nc(C2CC2)nc(NCc2cccs2)c1Cl [Compound 4-140, 5-Chloro-2-cyclopropyl-6-methoxycarbonyl-4-(thiophen-2-ylmethylamino)-pyrimidine]	20	100	40	80	50	100	30	90	60	90	70	90	–
COC(=O)c1nc(C2CC2)nc(NC2(c3cccc(C)n3)CC2)c1Cl [Compound 4-13, 5-Chloro-2-cyclopropyl-6-methoxycarbonyl-4-[1-(6-methylpyrid-2-yl)-cyclopropyl-amino]-pyrimidine]	0	20	0	50	0	20	20	60	0	60	0	50	–
COC(=O)c1nc(C2CC2)nc(N(Cc2ccccc2)CC(O)c2ccccc2)c1Cl (stereo not drawn) [Compound 155-257, 5-Chloro-2-cyclopropyl-4-[N-(2-hydroxy-2-phenylethyl)-N-phenylmethyl-amino]-6-methoxycarbonyl-pyrimidine]	–	–	–	–	–	–	–	–	–	–	–	–	pest or weed control at 1000 g/ha [1, 25]: 10%; pest or weed control at 1000 g/ha [2, 26]: 30%; pest or weed control at 1000 g/ha [3, 27]: 10%; pest or weed control at 1000 g/ha [4, 28]: 30%; pest or weed control at 1000 g/ha (Setaria faberi (SETFA) [5]; [29]): 20%; pest or weed control at 1000 g/ha (Solanum nigrum (SOLNI) [6]; [30]): 10%; pest or weed control at 1000 g/ha [7, 31]: 20%; pest or weed control at 1000 g/ha [8, 32]: 90%; pest or weed control at 1000 g/ha [9, 33]: 0%; pest or weed control at 1000 g/ha [10, 34]: 50%; pest or weed control at 1000 g/ha (Setaria faberi (SETFA) [11]; [35]): 50%; pest or weed control at 1000 g/ha (Solanum nigrum (SOLNI) [12]; [36]): 80%
CCCCOc1ccc(CNc2nc(C3CC3)nc(C(=O)OC)c2Cl)cc1 [Compound 4-82, 4-(4-^nButoxyphenyl-methylamino)-5-chloro-2-cyclo-propyl-6-methoxy-carbonylpyrimidine]	40	90	60	100	80	90	30	100	60	100	80	100	–
COC(=O)c1nc(-c2ccc(Cl)c(OC)c2F)nc(NCC2CC2)c1Cl [Compound 112-43, 5-Chloro-2-(4-chloro-2-fluoro-3-methoxy-phenyl)-4-cyclo-propylmethylamino-6-methoxycarbonyl-pyrimidine]	–	–	–	–	–	–	–	–	–	–	–	–	pest or weed control at 1000 g/ha [1, 25]: 40%; pest or weed control at 1000 g/ha [2, 26]: 60%; pest or weed control at 1000 g/ha [3, 27]: 60%; pest or weed control at 1000 g/ha [4, 28]: 80%; pest or weed control at 1000 g/ha (Setaria faberi (SETFA) [5]; [29]): 30%; pest or weed control at 1000 g/ha (Solanum nigrum (SOLNI) [6]; [30]): 70%; pest or weed control at 1000 g/ha [7, 31]: 40%; pest or weed control at 1000 g/ha [8, 32]: 100%; pest or weed control at 1000 g/ha [9, 33]: 80%; pest or weed control at 1000 g/ha [10, 34]: 70%; pest or weed control at 1000 g/ha (Setaria faberi (SETFA) [11]; [35]): 80%; pest or weed control at 1000 g/ha (Solanum nigrum (SOLNI) [12]; [36]): 90%
